Source: patent US10752647B2, “N-phosphonoxymethyl prodrugs of hydroxyalkyl thiadiazole derivatives” (DAIICHI SANKYO COMPANY, LIMITED, priority 2017, dated 2020)
In brackets after ≈: the same amount, converted by molar mass. Like-named read-outs stand apart in the source and are kept apart here.

Assays:
[1] = Solubility of parent compounds and prodrugs in phosphate buffer; type: physicochemical; conditions: aqueous buffer, thermodynamic from solid, 25° C., more than 4 weeks, pH 7.0
Experimental: Parent compounds: About 5 mg of parent compounds (biologically active forms of prodrugs) were added to 950 μL of phosphate buffer, and mixed vigorously for 1 hour at 25° C. Then, these samples were stored at 25° C. for more than 4 weeks and filtered to remove undissolved parent compounds. Next, these solutions were diluted with 50% aqueous acetonitrile solution. The resulting test solutions were assayed by HPLC. Prodrugs: About 30 mg of prodrugs were added to 120 μL of phosphate buffer, and mixed vigorously for 1 hour at 25° C. After shaking, pH of these solutions were adjusted at pH 7.0 by 1 mol/L NaOH solution. Then, the total volume were adjusted to 280 μL with purified water. Next, these solutions were stored at 25° C. for more than 4 weeks and filtered to remove undissolved compounds. These solutions were diluted with 50% aqueous acetonitrile solution. The resulting test solutions were assayed by HPLC.

[2] = Solubility in Japanese Pharmacopeia First Fluid (JP1) and Second Fluid (JP2); type: physicochemical; conditions: thermodynamic from solid, room temperature
Experimental: Method of Testing Solubility in Water and Neutral Buffer A 10 mmol/L solution of the test compound was prepared in DMSO and dispensed 100 μL of 10 mmol/L DMSO stock solutions into labeled glass tubes in duplicate, one for Japanese Pharmacopeia First Fluid (JP1) and second for Japanese Pharmacopeia Second Fluid (JP2). After evaporation of DMSO from each tube, 500 μL of JP1 and JP2 fluid were added in each tube, respectively. These tubes were sonicated for 1 minute and placed on shaker for 30 minutes with an interval of 30 seconds at every 5 minute. Tubes were placed in dark at room temperature for 1 hour and solution was filtered through membrane filter. The filtrate was diluted 2-fold and 10-fold. The resulting test solutions was analyzed and quantified against the standards using UPLC (standard preparation-10 mmol/L solution in DMSO is serially diluted with 50% aqueous acetonitrile solution to prepare 2 solutions; 100 μmol/L standard solution and 5 μmol/L standard solutions).

[3] = tested on: Clostridium difficile 2009155, a NAP1/027 strain; experiment: Hamster CDI model; type: in vivo; conditions: 0.3 mg/kg/day for 5 days
Experimental: d) Method for Testing Therapeutic Effect of Compounds in Hamster CDI Model
The in vivo efficacy of Compound No. 1 was evaluated in a hamster CDI model caused by Clostridium difficile 2009155, a NAP1/027 strain. The Syrian hamsters (7-9 weeks old, National Centre for Laboratory Animal Sciences, National Institute Nutrition, Hyderabad, India.) were acclimatized at least 7 days prior the experiment. Hamsters primed with a single subcutaneous injection of clindamycin (30 mg/kg) 1 day prior to infection. Hamsters were infected by oral gavage with 1 mL of spore suspension (2-3×10^5) prepared in PBS. The test compounds were prepared using the 0.25 w/v % Methyl Cellulose Solution for oral administration and 10% HP ß-CD for SC administration and treatment was started 6 h post infection at an interval of 24 h for 5 days. Hamsters were administered a dose of 0.03-0.3 mg/kg/day for 5 days. The death and survival time of the hamsters treated with test compound administered group and non-treated group (vehicle-control) were recorded once daily for 35 days and were compared. A change in the survival time was used as an index of therapeutic effect.

[4] = parent compound, phosphate buffer
[5] = pH 1.2, simulated gastric fluid, Japanese Pharmacopeia First Fluid (JP1), read-out: Solubility JP1
[6] = pH 6.8, aqueous buffer, Japanese Pharmacopeia Second Fluid (JP2), read-out: Solubility JP2
[7] = prodrug, phosphate buffer adjusted with NaOH

Row | Structure (SMILES) | solubility at 30 min [2, 5] [mg/mL] | solubility at 30 min [2, 6] [mg/mL] | solubility [1, 7] [mg/mL] | other results
1 | CCc1[nH]c(C(=O)N[C@@H]2CCN(c3nnc([C@](C)(O)CO)s3)C[C@@H]2OC)nc1Cl [Compound A, 4-chloro-N-[(3S,4R)-1-{5-[(2R)-1,2-dihydroxypropan-2-yl]-1,3,4-thiadiazol-2-yl}-3-methoxypiperidin-4-yl]-5-ethyl-1H-imidazole-2-carboxamide] |  |  |  | solubility [1, 4]: 0.775 mg/mL (≈ 1740 µM)
2 | CCc1[nH]c(C(=O)N[C@@H]2CCN(c3nnc([C@@H](O)CO)s3)C[C@@H]2OC)nc1Cl [Compound B, 4-chloro-N-[(3S,4R)-1-{5-[(1S)-1,2-dihydroxyethyl]-1,3,4-thiadiazol-2-yl}-3-methoxypiperidin-4-yl]-5-ethyl-1H-imidazole-2-carboxamide] |  |  |  | solubility [1, 4]: 0.38 mg/mL (≈ 882 µM)
3 | CCc1nc(C(=O)N[C@@H]2CCN(c3nnc(C(C)(C)O)s3)C[C@@H]2OC)n(COP(=O)(O)O)c1Cl [Compound No. 2, [5-Chloro-4-ethyl-2-({(3S,4R)-1-[5-(2-hydroxypropan-2-yl)-1,3,4-thiadiazol-2-yl]-3-methoxypiperidin-4-yl}carbamoyl)-1H-imidazol-1-yl]methyl dihydrogen phosphate] | > 1.12 | > 1.09 |  | Survival on day 35 [3]: 100%
4 | CCc1nc(C(=O)N[C@@H]2CCN(c3nnc([C@](C)(O)CO)s3)C[C@@H]2OC)n(COP(=O)(O)O)c1Cl [Compound No. 4, (5-Chloro-2-{[(3S,4R)-1-{5-[(2R)-1,2-dihydroxypropan-2-yl]-1,3,4-thiadiazol-2-yl}-3-methoxypiperidin-4-yl]carbamoyl}-4-ethyl-1H-imidazol-1-yl)methyl dihydrogen phosphate] | > 1.28 | > 1.51 | 102 | 
5 | CCc1nc(C(=O)N[C@@H]2CCN(c3nnc([C@H](O)CO)s3)C[C@@H]2OC)n(COP(=O)(O)O)c1Cl [Compound No. 8, (5-Chloro-2-{[(3S,4R)-1-{5-[(1R)-1,2-dihydroxyethyl]-1,3,4-thiadiazol-2-yl}-3-methoxypiperidin-4-yl]carbamoyl}-4-ethyl-1H-imidazol-1-yl)methyl dihydrogen phosphate] |  |  | 102 | 
6 | CCc1nc(C(=O)N[C@@H]2CCN(c3nnc([C@@H](O)CO)s3)C[C@@H]2OC)n(COP(=O)(O)O)c1Cl [Compound No. 10, (5-Chloro-2-{[(3S,4R)-1-{5-[(1S)-1,2-dihydroxyethyl]-1,3,4-thiadiazol-2-yl}-3-methoxypiperidin-4-yl]carbamoyl}-4-ethyl-1H-imidazol-1-yl)methyl dihydrogen phosphate] |  |  | 105 | 

Continued, in another order:

Row | solubility at 30 min [2, 5] [mg/mL] | solubility at 30 min [2, 6] [mg/mL] | solubility [1, 7] [mg/mL] | Structure (SMILES) | other results
7 | > 1.35 | > 1.32 | 107 | CCc1c(Cl)nc(C(=O)N[C@@H]2CCN(c3nnc([C@](C)(O)CO)s3)C[C@@H]2OC)n1COP(=O)(O)O [Compound No. 3, (4-Chloro-2-{[(3S,4R)-1-{5-[(2R)-1,2-dihydroxypropan-2-yl]-1,3,4-thiadiazol-2-yl}-3-methoxypiperidin-4-yl]carbamoyl}-5-ethyl-1H-imidazol-1-yl)methyl dihydrogen phosphate] | 
8 |  |  | 101 | CCc1c(Cl)nc(C(=O)N[C@@H]2CCN(c3nnc([C@H](C)O)s3)C[C@@H]2OC)n1COP(=O)(O)O [Compound No. 5, (4-Chloro-5-ethyl-2-{[(3S,4R)-1-{5-[(1S)-1-hydroxyethyl]-1,3,4-thiadiazol-2-yl}-3-methoxypiperidin-4-yl]carbamoyl}-1H-imidazol-1-yl)methyl dihydrogen phosphate] | 
9 |  |  | 104 | CCc1nc(C(=O)N[C@@H]2CCN(c3nnc([C@H](C)O)s3)C[C@@H]2OC)n(COP(=O)(O)O)c1Cl [Compound No. 6, (5-Chloro-4-ethyl-2-{[(3S,4R)-1-{5-[(1S)-1-hydroxyethyl]-1,3,4-thiadiazol-2-yl}-3-methoxypiperidin-4-yl]carbamoyl}-1H-imidazol-1-yl)methyl dihydrogen phosphate] | 
10 |  |  | 107 | CCc1c(Cl)nc(C(=O)N[C@@H]2CCN(c3nnc([C@H](O)CO)s3)C[C@@H]2OC)n1COP(=O)(O)O [Compound No. 7, (4-Chloro-2-{[(3S,4R)-1-{5-[(1R)-1,2-dihydroxyethyl]-1,3,4-thiadiazol-2-yl}-3-methoxypiperidin-4-yl]carbamoyl}-5-ethyl-1H-imidazol-1-yl)methyl dihydrogen phosphate] | 
